Experimental data published in article PMC8791611 (Science Advances, 2022).

Tests used:
BmrA [1] = molecular target: T1, BmrA (Bacillus subtilis, UniProt O06967); experiment: intrinsic fluorescence binding, purified WT BmrA in DDM
T1 sequence (O06967 1-589): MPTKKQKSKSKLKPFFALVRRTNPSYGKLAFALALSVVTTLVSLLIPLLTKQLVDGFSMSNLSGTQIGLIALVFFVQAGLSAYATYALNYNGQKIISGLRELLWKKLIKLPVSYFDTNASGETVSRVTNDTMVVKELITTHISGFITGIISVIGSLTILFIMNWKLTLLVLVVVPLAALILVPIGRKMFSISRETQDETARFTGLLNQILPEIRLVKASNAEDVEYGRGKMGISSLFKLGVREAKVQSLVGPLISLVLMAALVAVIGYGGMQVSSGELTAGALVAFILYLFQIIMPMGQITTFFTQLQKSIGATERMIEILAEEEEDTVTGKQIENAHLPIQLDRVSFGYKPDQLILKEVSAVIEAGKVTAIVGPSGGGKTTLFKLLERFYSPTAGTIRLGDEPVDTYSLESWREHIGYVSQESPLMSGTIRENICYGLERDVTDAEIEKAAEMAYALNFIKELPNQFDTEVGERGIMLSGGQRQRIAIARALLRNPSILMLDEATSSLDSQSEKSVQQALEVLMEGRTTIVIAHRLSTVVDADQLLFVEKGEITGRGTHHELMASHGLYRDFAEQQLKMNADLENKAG

BmrA [2] = molecular target: T2, BmrA (Bacillus subtilis, UniProt O06967, E504A); experiment: cryo-EM structure; assay type: binding
T2 sequence (O06967 1-589 E504A): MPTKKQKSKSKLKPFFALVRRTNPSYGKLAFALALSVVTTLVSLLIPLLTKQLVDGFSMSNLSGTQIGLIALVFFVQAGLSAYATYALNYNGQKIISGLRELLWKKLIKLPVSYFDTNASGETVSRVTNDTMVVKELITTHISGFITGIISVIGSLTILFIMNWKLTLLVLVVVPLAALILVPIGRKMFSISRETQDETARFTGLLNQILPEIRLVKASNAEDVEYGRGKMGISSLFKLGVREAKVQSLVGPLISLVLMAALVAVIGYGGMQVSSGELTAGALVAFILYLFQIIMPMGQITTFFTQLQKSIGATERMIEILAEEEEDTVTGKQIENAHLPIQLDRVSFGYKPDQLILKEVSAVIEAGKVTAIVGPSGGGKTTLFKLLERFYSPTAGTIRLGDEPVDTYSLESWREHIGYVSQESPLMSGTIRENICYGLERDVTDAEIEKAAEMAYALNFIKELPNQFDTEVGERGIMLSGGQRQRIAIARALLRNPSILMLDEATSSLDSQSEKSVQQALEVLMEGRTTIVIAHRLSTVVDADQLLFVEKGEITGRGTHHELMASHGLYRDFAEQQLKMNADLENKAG

crystal structure = molecular target: the molecule itself; experiment: crystal structure

Molecule	Kd (BmrA [1]) [µM]	Kd (BmrA [2]) [µM]	binding result (crystal structure)
CC/N=c1\cc2oc3cc(NCC)c(C)cc3c(-c3ccccc3C(=O)OCC)c-2cc1C [R6G]	4.8 ± 0.9	3.3 ± 0.7	
BmrA E504A mutant (Bacillus subtilis multidrug ABC exporter, homodimeric) (natural protein) MPTKKQKSKSKLKPFFALVRRTNPSYGKLAFALALSVVTTLVSLLIPLLTKQLVDGFSMSNLSGTQIGLIALVFFVQAGLSAYATYALNYNGQKIISGLRELLWKKLIKLPVSYFDTNASGETVSRVTNDTMVVKELITTHISGFITGIISVIGSLTILFIMNWKLTLLVLVVVPLAALILVPIGRKMFSISRETQDETARFTGLLNQILPEIRLVKASNAEDVEYGRGKMGISSLFKLGVREAKVQSLVGPLISLVLMAALVAVIGYGGMQVSSGELTAGALVAFILYLFQIIMPMGQITTFFTQLQKSIGATERMIEILAEEEEDTVTGKQIENAHLPIQLDRVSFGYKPDQLILKEVSAVIEAGKVTAIVGPSGGGKTTLFKLLERFYSPTAGTIRLGDEPVDTYSLESWREHIGYVSQESPLMSGTIRENICYGLERDVTDAEIEKAAEMAYALNFIKELPNQFDTEVGERGIMLSGGQRQRIAIARALLRNPSILMLDAATSSLDSQSEKSVQQALEVLMEGRTTIVIAHRLSTVVDADQLLFVEKGEITGRGTHHELMASHGLYRDFAEQQLKMNADLENKAG			binds
